A word on the Ki: it is the dissociation constant of the complex between target and ligand, obtained from inhibition or displacement.

The target of one experiment is T1, human mGlu 5a receptor (Homo sapiens, UniProt P41594).
T1 construct: expressed in transfected cells; host or cells: EBNA cells (transient transfection), membrane homogenates
T1 sequence (P41594 21-1180 isoform P41594-2 limits assumed): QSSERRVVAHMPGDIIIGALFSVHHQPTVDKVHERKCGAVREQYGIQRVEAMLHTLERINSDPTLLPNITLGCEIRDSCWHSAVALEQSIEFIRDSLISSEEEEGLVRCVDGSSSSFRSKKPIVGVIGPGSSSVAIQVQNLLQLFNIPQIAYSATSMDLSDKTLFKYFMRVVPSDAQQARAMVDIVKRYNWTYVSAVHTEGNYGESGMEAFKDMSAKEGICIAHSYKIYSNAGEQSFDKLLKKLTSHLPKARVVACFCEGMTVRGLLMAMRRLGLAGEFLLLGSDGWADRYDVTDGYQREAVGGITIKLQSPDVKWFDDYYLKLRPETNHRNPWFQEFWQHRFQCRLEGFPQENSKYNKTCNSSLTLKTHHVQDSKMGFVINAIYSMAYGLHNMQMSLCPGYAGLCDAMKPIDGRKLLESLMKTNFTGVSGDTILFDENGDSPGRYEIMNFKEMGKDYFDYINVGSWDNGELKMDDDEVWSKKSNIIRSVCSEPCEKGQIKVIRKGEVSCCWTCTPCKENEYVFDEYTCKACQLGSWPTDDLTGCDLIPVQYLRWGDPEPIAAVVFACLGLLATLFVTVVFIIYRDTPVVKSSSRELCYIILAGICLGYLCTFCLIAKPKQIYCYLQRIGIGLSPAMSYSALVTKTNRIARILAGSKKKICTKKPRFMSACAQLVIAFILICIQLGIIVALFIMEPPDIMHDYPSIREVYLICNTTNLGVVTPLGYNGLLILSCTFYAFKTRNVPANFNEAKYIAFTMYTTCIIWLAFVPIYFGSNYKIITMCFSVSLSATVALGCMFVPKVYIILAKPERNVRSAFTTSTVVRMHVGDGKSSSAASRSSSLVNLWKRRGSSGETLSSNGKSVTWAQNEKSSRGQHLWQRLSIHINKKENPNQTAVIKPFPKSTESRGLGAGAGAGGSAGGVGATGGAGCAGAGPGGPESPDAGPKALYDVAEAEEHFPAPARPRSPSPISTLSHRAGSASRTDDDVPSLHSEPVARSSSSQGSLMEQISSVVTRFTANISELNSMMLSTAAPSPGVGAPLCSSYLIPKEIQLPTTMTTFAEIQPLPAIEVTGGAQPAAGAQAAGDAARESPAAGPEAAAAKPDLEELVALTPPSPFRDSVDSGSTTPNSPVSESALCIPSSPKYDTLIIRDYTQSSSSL
Kind of experiment: [3H]MPEP competition binding on membranes of EBNA cells transfected with human mGlu 5a receptor. Conditions: competition with [3H]MPEP (2 nM), 1 h at 4° C., EBNA cell membranes. How it is done:
The pharmacological activity of the compounds was tested using the following method: For binding experiments, cDNA encoding human mGlu 5a receptor was transiently transfected into EBNA cells using a procedure described by Schlaeger and Christensen [Cytotechnology 15:1-13 (1998)]. Cell membrane homogenates were stored at −80° C. until the day of assay where upon they were thawed and resuspended and polytronised in 15 mM Tris-HCl, 120 mM NaCl, 100 mM KCl, 25 mM CaCl2, 25 mM MgCl2 binding buffer at pH 7.4 to a final assay concentration of 20 μg protein/well.
Saturation isotherms were determined by addition of twelve [^3H] MPEP concentrations (0.04-100 nM) to these membranes (in a total volume of 200 μd) for 1 h at 4° C. Competition experiments were performed with a fixed concentration of [^3H]MPEP (2 nM) and IC50 values of test compounds evaluated using 11 concentrations (0.3-10,000 nM). Incubations were performed for 1 h at 4° C.
At the end of the incubation, membranes were filtered onto unifilter (96-well white microplate with bonded GF/C filter preincubated 1 h in 0.1% PEI in wash buffer, Packard Bio-Science, Meriden, Conn.) with a Filtermate 96 harvester (Packard BioScience) and washed 3 times with cold 50 mM Tris-HCl, pH 7.4 buffer. Nonspecific binding was measured in the presence of 10 μM MPEP. The radioactivity on the filter was counted (3 min) on a Packard Top-count microplate scintillation counter with quenching correction after addition of 45 μl of microscint 40 (Canberra Packard S. A., Zürich, Switzerland) and shaking for 20 min.
For binding experiments the Ki values of the compounds tested are given. The Ki value is defined by the following formula: KiIC50/[1+L/Kd] in which the IC50 values are those concentrations of the compounds tested which cause 50% inhibition of the competing radioligand ([^3H]MPEP). L is the concentration of radioligand used in the binding experiment and the Kd value of the radioligand is empirically determined for each batch of membranes prepared.
For the molecule `COc1cncc(-c2cc(C)nc(C(=O)Nc3csc(C)n3)c2)c1` [Example 56, 5-Methoxy-6′-methyl-[3,4′]bipyridinyl-2′-carboxylic acid (2-methyl-thiazol-4-yl)-amide], the Ki was 29 nM. In the case of `Cc1cc(-c2cc(F)cc(F)c2)cc(C(=O)Nc2nc(CC#N)cs2)n1` [Example 163, 4-(3,5-Difluorophenyl)-6-methyl-pyridine-2-carboxylic acid (4-cyanomethyl-thiazol-2-yl)-amide], the Ki was 20 nM. As for `Cc1cc(-c2cc(Cl)cc(Cl)c2)cc(C(=O)Nc2ccn(C)n2)n1` [Example 23, 4-(3,5-Dichloro-phenyl)-6-methyl-pyridine-2-carboxylic acid (1-methyl-1H-pyrazol-3-yl)-amide], the Ki was 4 nM. Still for that read-out and setting: the figure for `Cc1cc(-c2cc(F)cc(F)c2)cc(C(=O)Nc2ccnc(C#N)c2)n1` [Example 169, 4-(3,5-Difluorophenyl)-6-methyl-pyridine-2-carboxylic acid (2-cyano-pyridin-4-yl)-amide] is 30 nM; for `Cc1cc(-c2cc(F)cc(F)c2)nc(C(=O)Nc2nc(C)cs2)n1` [Example 192, 4-(3,5-Difluoro-phenyl)-6-methyl-pyrimidine-2-carboxylic acid (4-methyl-thiazol-2-yl)-amide] it is 110 nM. Regarding `Cc1cc(NC(=O)c2cc(-c3cc(F)cc(F)c3)nc(C)n2)ccn1` [Example 37, 6-(3,5-Difluoro-phenyl)-2-methyl-pyrimidine-4-carboxylic acid (2-methyl-pyridin-4-yl)-amide], the Ki was 90 nM. As to `Cc1cc(-c2cc(F)cc(F)c2)cc(C(=O)Nc2ncc(F)s2)n1` [Example 200, 4-(3,5-Difluoro-phenyl)-6-methyl-pyridine-2-carboxylic acid (5-fluoro-thiazol-2-yl)-amide], the Ki amounted to 81 nM. As for `Cc1cc(-c2cc(F)cc(F)c2)cc(C(=O)Nc2ccnc(C)n2)n1` [Example 64, 4-(3,5-Difluorophenyl)-6-methyl-pyridine-2-carboxylic acid (2-methyl-pyrimidin-4-yl)-amide], the Ki was determined as 8 nM. Take `Cc1cc(-c2cncc(F)c2)cc(C(=O)Nc2cccc(Cl)c2)n1` [Example 177, 5-Fluoro-6′-methyl-[3,4′]bipyridinyl-2′-carboxylic acid (3-chloro-phenyl)-amide]: the Ki is 111 nM. As for `Cc1cc(NC(=O)c2cc(-c3ccnc(C#N)c3)cc(C)n2)ccn1` [Example 142, 2′-Cyano-6-methyl-[4,4′]bipyridinyl-2-carboxylic acid (2-methyl-pyridin-4-yl)-amide], the Ki came to 182 nM. Same read-out and setting: for `Cc1cc(-c2cncc(F)c2)cc(C(=O)Nc2ccc(Cl)cn2)n1` [Example 173, 5-Fluoro-6′-methyl-[3,4′]bipyridinyl-2′-carboxylic acid (5-chloro-pyridin-2-yl)-amide] the value was 33 nM. As to `Cc1csc(NC(=O)c2cc(-c3cc(F)cc(F)c3)nc(C)n2)n1` [Example 33, 6-(3,5-Difluoro-phenyl)-2-methyl-pyrimidine-4-carboxylic acid (4-methyl-thiazol-2-yl)-amide], the Ki came to 14 nM.

With `Cc1cc(-c2ccc(F)cc2)cc(C(=O)Nc2ccnc(Cl)c2)n1` [Example 31, 4-(4-Fluoro-phenyl)-6-methyl-pyridine-2-carboxylic acid (2-chloro-pyridin-4-yl)-amide], the Ki amounted to 620 nM.

As for `Cc1cc(-c2cc(C)nn2C)c(C)c(C(=O)Nc2csc(C)n2)n1` [Example 109, 4-(2,5-Dimethyl-2H-pyrazol-3-yl)-3,6-dimethyl-pyridine-2-carboxylic acid (2-methyl-thiazol-4-yl)-amide], the Ki was determined as 127 nM. Regarding `CCOC(=O)Cn1ccc(NC(=O)c2cc(-c3cc(F)cc(F)c3)cc(C)n2)n1` [Example 170, (3-{[4-(3,5-Difluorophenyl)-6-methyl-pyridine-2-carbonyl]-amino}-pyrazol-1-yl)-acetic acid ethyl ester], the Ki stood at 576 nM. As for `COc1cncc(-c2cc(C)nc(C(=O)Nc3ccn(C)n3)c2)c1` [Example 50, 5-Methoxy-6′-methyl-[3,4′]bipyridinyl-2′-carboxylic acid (1-methyl-1H-pyrazol-3-yl)-amide], the inhibitory constant (Ki) was determined as 213 nM. Still for that read-out and setting: the figure for `Cc1cc(-c2ccnc(Cl)c2)cc(C(=O)Nc2ccn(C)n2)n1` [Example 153, 2′-Chloro-6-methyl-[4,4′]bipyridinyl-2-carboxylic acid (1-methyl-1H-pyrazol-3-yl)-amide] is 59 nM.

The experiment is the same for the next values; noted with them: competition with [3H]MPEP (2 nM), 1 h at 4° C., EBNA cell membranes, head prints no unit.
Consider `Cc1cc(-c2ccc(Cl)nc2)cc(C(=O)Nc2nc(C)cs2)n1` [Example 4, 6-Chloro-6′-methyl-[3,4′]bipyridinyl-2′-carboxylic add (4-methyl-thiazol-2-yl)-amide], for which the Ki stood at 244 nM. The same measure, in the same setting: the figure for `Cc1cc(-c2cccc(OC(F)(F)F)c2)cc(C(=O)Nc2nc(C)cs2)n1` [Example 7, 6-Methyl-4-(3-trifluoromethoxy-phenyl)-pyridine-2-carboxylic acid (4-methyl-thiazol-2-yl)-amide] is 14 nM. Turning to `Cc1cc(-c2ccc(F)c(F)c2)cc(C(=O)Nc2nc(C)cs2)n1` [Example 10, 4-(3,4-Difluoro-phenyl)-6-methyl-pyridine-2-carboxylic acid (4-methyl-thiazol-2-yl)-amide], the inhibitory constant (Ki) was 23 nM. Same read-out and setting: the figure for `Cc1cc(-c2cccc(F)c2)cc(C(=O)Nc2nc(C)cs2)n1` [Example 1, 4-(3-Fluoro-phenyl)-6-methyl-pyridine-2-carboxylic acid (4-methyl-thiazol-2-yl)-amide] is 3 nM. On the same count and under the same terms, the figure for `COc1ccc(-c2cc(C)nc(C(=O)Nc3nc(C)cs3)c2)cc1` [Example 9, 4-(4-Methoxy-phenyl)-6-methyl-pyridine-2-carboxylic acid (4-methyl-thiazol-2-yl)-amide] is 1200 nM; for `Cc1cc(-c2cc(Cl)cc(Cl)c2)cc(C(=O)Nc2csc(C)n2)n1` [Example 20, 4-(3,5-Dichloro-phenyl)-6-methyl-pyridine-2-carboxylic acid (2-methyl-thiazol-4-yl)-amide] it is 6 nM; for `Cc1cc(-c2ccccc2Cl)cc(C(=O)Nc2nc(C)cs2)n1` [Example 14, 4-(2-Chloro-phenyl)-6-methyl-pyridine-2-carboxylic acid (4-methyl-thiazol-2-yl)-amide] it is 4 nM.

Regarding `Cc1cc(-c2cncc(F)c2)cc(C(=O)Nc2nc(C)cs2)n1` [Example 19, 5-Fluoro-6′-methyl-[3,4′]bipyridinyl-2′-carboxylic acid (4-methyl-thiazol-2-yl)-amide], the Ki was found to be 25 nM. With `COc1ccccc1-c1cc(C)nc(C(=O)Nc2nc(C)cs2)c1` [Example 13, 4-(2-Methoxy-phenyl)-6-methyl-pyridine-2-carboxylic acid (4-methyl-thiazol-2-yl)-amide], the Ki was found to be 25 nM. As for `Cc1cc(-c2ccc(C#N)cc2)cc(C(=O)Nc2nc(C)cs2)n1` [Example 12, 4-(4-Cyano-phenyl)-6-methyl-pyridine-2-carboxylic acid (4-methyl-thiazol-2-yl)-amide], the Ki came out at 253 nM. Consider `Cc1cc(-c2cccc(S(C)(=O)=O)c2)cc(C(=O)Nc2nc(C)cs2)n1` [Example 8, 4-(3-Methanesulfonyl-phenyl)-6-methyl-pyridine-2-carboxylic acid (4-methyl-thiazol-2-yl)-amide], for which the Ki was 396 nM.

The record behind these values is patent US7951824B2, “4-aryl-pyridine-2-carboxyamide derivatives” (Hoffman-La Roche Inc., priority 2006, dated 2011).
